Experimental data reported in patent US11173151B2, “Substituted triazole derivatives and uses thereof” (BAYER AKTIENGESELLSCHAFT, priority 2017, dated 2021).
pIC50: −log10 of the molar value. Read-outs that look alike come from different tables or passages of the source.

Legend:
human V2 receptor = target: T1, human V2 receptor (Homo sapiens, UniProt P30518); assay: Cellular in vitro assay for determining vasopressin receptor activity, V2 receptor cell line (CHO, CRE-luciferase); format: cell-based; conditions: CHO cell line transfected with human V2 receptor, [Arg8]-vasopressin at EC50 concentration, read-out: IC50 hV2
T1 construct: expressed in transfected cells; host or cells: CHO K1 (ATCC) expressing firefly luciferase under a CRE-responsive promoter
T1 sequence (P30518 whole entry): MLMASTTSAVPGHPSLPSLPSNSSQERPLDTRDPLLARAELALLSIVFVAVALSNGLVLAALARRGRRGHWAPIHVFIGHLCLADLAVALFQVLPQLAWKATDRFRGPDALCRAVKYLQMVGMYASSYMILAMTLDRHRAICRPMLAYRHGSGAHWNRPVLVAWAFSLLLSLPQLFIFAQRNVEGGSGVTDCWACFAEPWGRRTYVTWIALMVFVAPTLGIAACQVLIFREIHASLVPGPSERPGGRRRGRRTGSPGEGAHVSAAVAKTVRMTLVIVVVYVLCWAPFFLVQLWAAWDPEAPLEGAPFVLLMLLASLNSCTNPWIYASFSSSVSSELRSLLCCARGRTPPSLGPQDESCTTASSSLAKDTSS

human V1a receptor = target: T2, human V1a receptor (Homo sapiens, UniProt P37288); assay: Cellular in vitro assay for determining vasopressin receptor activity, V1a receptor cell line (CHO, aequorin luminescence); format: cell-based; conditions: for pIC50: CHO cell line transfected with human V1a receptor, [Arg]-vasopressin at EC50 concentration, read-out: IC50 hV1a; for ratio IC50 hV2/hV1a: selectivity ratio IC50 hV2 / IC50 hV1a
T2 construct: expressed in transfected cells; host or cells: CHO K1 (ATCC), also stably transfected with a modified aequorin
T2 sequence (P37288 whole entry): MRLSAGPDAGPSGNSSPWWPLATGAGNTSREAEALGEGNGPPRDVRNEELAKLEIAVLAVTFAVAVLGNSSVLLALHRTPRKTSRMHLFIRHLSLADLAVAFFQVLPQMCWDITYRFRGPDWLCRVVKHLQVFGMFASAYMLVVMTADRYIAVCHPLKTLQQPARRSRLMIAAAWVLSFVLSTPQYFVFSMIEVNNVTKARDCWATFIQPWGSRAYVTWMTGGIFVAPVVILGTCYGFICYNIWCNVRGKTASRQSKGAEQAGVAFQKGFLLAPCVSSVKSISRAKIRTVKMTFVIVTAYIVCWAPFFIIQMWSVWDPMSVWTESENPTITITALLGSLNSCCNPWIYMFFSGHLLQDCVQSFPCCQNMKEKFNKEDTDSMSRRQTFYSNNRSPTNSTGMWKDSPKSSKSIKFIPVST
Procedure, shortened: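 IC50 from inhibition of [Arg]-vasopressin (EC50 concentration)-evoked aequorin luminescence in CHO K1 cells, with 10-min compound pretreatment.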

pIC50 (human V2 receptor; 3 hours) | pIC50 (human V1a receptor) | ratio IC50 hV2/hV1a (human V1a receptor) | pIC50 (human V2 receptor) | SMILES
6.12 | 8.30 | 150.7 | – | O=C(Nc1ccncc1-n1cnc(Cn2nc(-c3ccc(Cl)cc3)n(C[C@H](O)C(F)(F)F)c2=O)n1)C1(C(F)(F)F)CC1 [Example 32, N-{3-[3-({3-(4-Chlorophenyl)-5-oxo-4-[(2S)-3,3,3-trifluoro-2-hydroxypropyl]-4,5-dihydro-1H-1,2,4-triazol-1-yl}methyl)-1H-1,2,4-triazol-1-yl]pyridin-4-yl}-1-(trifluoromethyl)cyclopropanecarboxamide]
6.58 | 8.74 | 147.2 | – | O=C(c1ccccc1-n1cnc(Cn2nc(-c3ccc(Cl)cc3)n(C[C@H](O)C(F)(F)F)c2=O)n1)N1CCCCCC1 [Example 350, 2-({1-[2-(Azepan-1-ylcarbonyl)phenyl]-1H-1,2,4-triazol-3-yl}methyl)-5-(4-chlorophenyl)-4-[(2S)-3,3,3-trifluoro-2-hydroxypropyl]-2,4-dihydro-3H-1,2,4-triazol-3-one]
5.44 | 8.56 | 1327.3 | – | COC[C@@H]1CCCN1C(=O)c1ccccc1-n1cnc(Cn2nc(-c3ccc(Cl)cc3)n(C[C@H](O)C(F)(F)F)c2=O)n1 [Example 339, 5-(4-Chlorophenyl)-2-{[1-(2-{[(2S)-2-(methoxymethyl)pyrrolidin-1-yl]carbonyl}phenyl)-1H-1,2,4-triazol-3-yl]methyl}-4-[(2S)-3,3,3-trifluoro-2-hydroxypropyl]-2,4-dihydro-3H-1,2,4-triazol-3-one]
8.39 | 8.37 | 0.9 | – | CC1(CNC(=O)c2ccccc2-n2cnc(Cn3nc(-c4ccc(Cl)cc4)n(C[C@H](O)C(F)(F)F)c3=O)n2)CCCO1 (mixture of isomers) [Example 202, 2-[3-({3-(4-Chlorophenyl)-5-oxo-4-[(2S)-3,3,3-trifluoro-2-hydroxypropyl]-4,5-dihydro-1H-1,2,4-triazol-1-yl}methyl)-1H-1,2,4-triazol-1-yl]-N-{[2-methyltetrahydrofuran-2-yl]methyl}benzamide]
– | 7.08 | 56.0 | 5.34 | CC(C)(N)CNC(=O)c1nc(Cn2nc(-c3ccc(Cl)cc3)n(C[C@H](O)C(F)(F)F)c2=O)nn1-c1cnccc1C(=O)N[C@H]1C[C@H]1F (racemic) [Example 535, 3-{5-[(2-amino-2-methylpropyl)carbamoyl]-3-({3-(4-chlorophenyl)-5-oxo-4-[(2S)-3,3,3-trifluoro-2-hydroxypropyl]-4,5-dihydro-1H-1,2,4-triazol-1-yl}methyl)-1H-1,2,4-triazol-1-yl}-N-[2-fluorocyclopropyl]pyridine-4-carboxamide]
5.94 | 7.11 | 14.7 | – | O=C(Nc1ncccc1-n1cnc(Cn2nc(-c3ccc(Cl)cc3)n(C[C@H](O)C(F)(F)F)c2=O)n1)c1ccccc1F [Example 116]
6.12 | 7.59 | 29.8 | – | CC1=C(C)CN(C(=O)c2ccccc2-n2cnc(Cn3nc(-c4ccc(Cl)cc4)n(C[C@H](O)C(F)(F)F)c3=O)n2)CC1 [Example 260, 5-(4-Chlorophenyl)-2-[(1-{2-[(4,5-dimethyl-3,6-dihydropyridin-1(2H)-yl)carbonyl]phenyl}-1H-1,2,4-triazol-3-yl)methyl]-4-[(2S)-3,3,3-trifluoro-2-hydroxypropyl]-2,4-dihydro-3H-1,2,4-triazol-3-one]
– | 7.61 | 43.5 | 5.97 | O=C(N[C@H]1C[C@H]1F)c1ncccc1-n1cnc(Cn2nc(-c3ccc(Cl)cc3)n(C[C@H](O)C(F)(F)F)c2=O)n1 (racemic) [Example 435, 3-[3-({3-(4-Chlorophenyl)-5-oxo-4-[(2S)-3,3,3-trifluoro-2-hydroxypropyl]-4,5-dihydro-1H-1,2,4-triazol-1-yl}methyl)-1H-1,2,4-triazol-1-yl]-N-[2-fluorocyclopropyl]pyridine-2-carboxamide]
5.82 | 7.87 | 111.1 | – | Cc1nnsc1C(=O)Nc1ncccc1-n1cnc(Cn2nc(-c3ccc(Cl)cc3)n(C[C@H](O)C(F)(F)F)c2=O)n1 [Example 128]
6.16 | 6.82 | 4.6 | – | O=C1CCC(CNc2ncccc2-n2cnc(Cn3nc(-c4ccc(Cl)cc4)n(C[C@H](O)C(F)(F)F)c3=O)n2)N1 (stereo partly drawn) [Example 70, 5-(4-Chlorophenyl)-2-{[1-(2-{[(5-oxopyrrolidin-2-yl)methyl]amino}pyridin-3-yl)-1H-1,2,4-triazol-3-yl]methyl}-4-[(2S)-3,3,3-trifluoro-2-hydroxypropyl]-2,4-dihydro-3H-1,2,4-triazol-3-one]
5.94 | 7.10 | 14.4 | – | Cc1cc(C(=O)Nc2ncccc2-n2cnc(Cn3nc(-c4ccc(Cl)cc4)n(C[C@H](O)C(F)(F)F)c3=O)n2)on1 [Example 102]
– | 6.44 | 3.0 | 5.96 | O=C(N[C@H]1C[C@H]1F)c1ccncc1-n1nc(Cn2nc(-c3ccc(Cl)cc3)n(C[C@H](O)C(F)(F)F)c2=O)nc1C(=O)N1CCS(=O)(=O)CC1 (racemic) [Example 523, 3-{3-({3-(4-Chlorophenyl)-5-oxo-4-[(2S)-3,3,3-trifluoro-2-hydroxypropyl]-4,5-dihydro-1H-1,2,4-triazol-1-yl}methyl)-5-[(1,1-dioxidothiomorpholin-4-yl)carbonyl]-1H-1,2,4-triazol-1-yl}-N-[2-fluorocyclopropyl]pyridine-4-carboxamide]
6.67 | 8.23 | 36.5 | – | O=C(Nc1cccnc1-n1cnc(Cn2nc(-c3ccc(Cl)cc3)n(C[C@H](O)C(F)(F)F)c2=O)n1)C1CC1(F)F (single isomer, unassigned) [Example 43]
– | 6.96 | 290.9 | 4.49 | NC(=O)[C@H]1CC(F)(F)CN1C(=O)c1ncccc1-n1cnc(Cn2nc(-c3ccc(Cl)cc3)n(C[C@@H](O)C(F)(F)F)c2=O)n1 [Example 486, 1-({3-[3-({3-(4-Chlorophenyl)-5-oxo-4-[(2R)-3,3,3-trifluoro-2-hydroxypropyl]-4,5-dihydro-1H-1,2,4-triazol-1-yl}methyl)-1H-1,2,4-triazol-1-yl]pyridin-2-yl}carbonyl)-4,4-difluoro-D-prolinamide]
5.16 | 7.31 | 140.4 | – | NC(=O)[C@@H]1CC(F)(F)CN1C(=O)c1ccccc1-n1cnc(Cn2nc(-c3ccc(Cl)cc3)n(C[C@H](O)C(F)(F)F)c2=O)n1 [Example 197, 1-{2-[3-({3-(4-Chlorophenyl)-5-oxo-4-[(2S)-3,3,3-trifluoro-2-hydroxypropyl]-4,5-dihydro-1H-1,2,4-triazol-1-yl}methyl)-1H-1,2,4-triazol-1-yl]benzoyl}-4,4-difluoro-L-prolinamide]
7.83 | 9.13 | 20.1 | – | O=C(Nc1ccccc1)c1ccccc1-n1cnc(Cn2nc(-c3ccc(Cl)cc3)n(C[C@H](O)C(F)(F)F)c2=O)n1 [Example 360, 2-[3-({3-(4-Chlorophenyl)-5-oxo-4-[(2S)-3,3,3-trifluoro-2-hydroxypropyl]-4,5-dihydro-1H-1,2,4-triazol-1-yl}methyl)-1H-1,2,4-triazol-1-yl]-N-phenylbenzamide]
